Data reported in ChEMBL document CHEMBL1201862, “PubChem BioAssay data set” (2004).
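Following 48 hours of exposure in 96-well plates, responses at five concentrations were used to interpolate endpoints linearly. GI50 is the concentration that inhibits growth by half.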 Active and inactive are the calls of the source. Cut-off read from the data, not from the text of the source: active = GI50 up to about 1.1 µM and inactive = higher.

Assays:
Assay in all cases: NCI tumour cell line growth inhibition, 48 h
786-0 = system: 786-0
A498 = system: A498
ACHN = system: ACHN
HOP-92 = system: HOP-92
IGROV-1 = system: IGROV-1
LOX IMVI = system: LOX IMVI
M14 = system: M14
MDA-MB-231 = system: MDA-MB-231
NCI-H226 = system: NCI-H226
NCI-H23 = system: NCI-H23
NCI-H460 = system: NCI-H460
NCI-H522 = system: NCI-H522
OVCAR-5 = system: OVCAR-5
OVCAR-8 = system: OVCAR-8
RXF 393 = system: RXF 393
SF-268 = system: SF-268
SNB-75 = system: SNB-75
SW-620 = system: SW-620
U-251 = system: U-251
UACC-257 = system: UACC-257

Measured: GI50

c1cc2n(n1)CCN2
inactive: 786-0 1120 µM | A498 1150 µM | ACHN 151 µM | HOP-92 1590 µM | IGROV-1 7380 µM | LOX IMVI 662 µM | M14 486 µM | MDA-MB-231 > 1500 µM | NCI-H226 1960 µM | NCI-H23 1060 µM | NCI-H460 820 µM | NCI-H522 2300 µM | OVCAR-5 4300 µM | OVCAR-8 875 µM | RXF 393 1390 µM | SF-268 1550 µM | SNB-75 3400 µM | SW-620 3430 µM | U-251 706 µM | UACC-257 5980 µM
